Measurements reported in patent US10391112B2, “Cationic polymers as co-drugs for chemotherapeutic agents” (Northeastern University, priority 2015, dated 2019).

System: MDA-MB-231
Assay: alamar-blue cell viability / cytotoxicity of PEI, doxorubicin and mixtures
Assay type: cell-based, human
Procedure: All cells were maintained at 37° C. in a humidified incubator with 5% CO2. MDA-MB-231 growing in the DMEM medium were harvested by trypsin-EDTA, and an initial concentration of 1×106 and further dilutions were made and seeded into wells of a 96-well plate (100 μL for each well). The medium without cells was used as negative control, and the plate was incubated for 18 h to allow cell attachment. Then another 100 μL, medium with desirable concentration drug were added into the well. After 24 h and 48 h incubation, 22 μL of alamar-blue (0.5 mg per mL) was added to each well. The absorbance was measured after further 4 h incubation at 530 nm and 590 nm using PowerwaveXPS plate reader. The plate was also incubated for the following 24 hours to measure the maximum dye reduction. Percentage reduction of alamar-blue is typically calculated using equation (1):
[formula] where At, An and Ac are recorded absorbance of test wells for test group, negative control group and positive control group.
Referring to FIG. 2, the cell viability is shown as a function of the molecular weight of the cationic polymer. […] All cells were maintained at 37° C. in a humidified incubator with 5% CO2. MDA-MB-231, 4T1 and HUVECs, HCC-1806, Hs-587T, MCF-7 cells growing in the log phase of growth were harvested by trypsin-EDTA, and an initial concentration of 1×10^6 and further dilutions were made and seeded into wells of a 96-well plate (100 μL, for each well). The medium without cells was used as negative control, and the plate was incubated for 18 h to allow cell attachment. Then another 100 μL medium with desirable concentration drug were added into the well. After 24 h and 48 h incubation, 22 μL, of alamar-blue (0.5 mg per mL) was added to each well. The absorbance was measured after further 4 h incubation at 530 nm and 590 nm using Powerwave XPS plate reader. The plate was also incubated for the following 24 hours to measure the maximum dye reduction. Percentage reduction of alamar-blue is typically calculated using equation (1).

## COc1cccc2c1C(=O)c1c(O)c3c(c(O)c1C2=O)C[C@@](O)(C(=O)CO)C[C@@H]3O[C@H]1C[C@H](N)[C@H](O)[C@H](C)O1 [doxorubicin]
FIG. 1, drug concentrations between 0 μM and 5 μM
  cell viability: approximately 70%
FIG. 2, 0.3 to 0.6 μg doxorubicin per well, 0 μg of PEI
  cell viability: 60-70%
FIG. 3 line 304, doxorubicin less than 5 μM
  cell viability: about 70%
